Results from patent US20250144101A1, “LYSOSOMAL DYSFUNCTION IN NEUROLOGICAL AND PSYCHIATRIC DISORDERS” (The Johns Hopkins University, priority 2022, published 2025).

Key:
α-galactosidase A = conditions: cells from patients with Fabry disease; cited from earlier work
[1] = test system: lymphoblasts from BD patients with a Cln3 mutation; experiment: Cellular autofluorescence (AF) in BD/JNCL patient lymphoblasts by flow cytometry; type: cell-based, human
Description: Autofluorescence (AF): AF levels in human blood cells were measured in 30,000 cells using flow cytometry at FL-1 with the BD FACSCalibur™ (BD Biosciences) (Excitation; 488 nm, Emission; 530±15 nm) (for FIGS. 1A-1C). AF levels in lymphoblasts were measured in 20,000 cells using flow cytometry with Attune Flow Cytometer (Thermo Fisher Scientific) (Excitation; 488 nm, Emission; 530 nm) (for FIGS. 2A and 2B).

[2] = test system: lymphoblasts from BD patients with a Cln3 mutation; experiment: LAMP1 staining of BD/JNCL patient lymphoblasts; type: cell-based, human
Description: (§1) LAMP1 staining: Lymphoblasts were fixed with methanol and incubated overnight at 4° C. with anti-human LAMP1 antibody (1:400, Cell Signaling Technology) followed by secondary antibody (Alexa Fluor 488 donkey anti-rabbit IgG, 1:1000, Thermo Fisher Scientific). Neuronal cells differentiated from iPS cells were fixed with 4% paraformaldehyde (PFA) and incubated overnight at 4° C. with anti-human LAMP1 antibody (1:400, Cell Signaling Technology) followed by a secondary antibody (Alexa Fluor 488 donkey anti-rabbit IgG, 1:1000, Thermo Fisher Scientific). White blood cells from mice were fixed with methanol and incubated overnight at 4° C. with LAMP1 antibody (1:1000, Abcam) followed by a secondary antibody (Alexa Fluor 488 donkey anti-rabbit IgG, 1:1000, Thermo Fisher Scientific). KEYENCE BZ-X710 and BX-Z analyzer software were used for imaging quantification.

Cln3−/− mice [3] = experiment: Novel object recognition test, BD animal model; type: in vivo; conditions: CLN3 knockout (KO) mice, FIG. 4D
Description: Novel Object Recognition Test (NORT): The test was carried out according to the previously validated method (Hatayama et al., Neuroscience 265 (2014) 217-25). All mice were habituated for 1 hour to the NORT arena one day before the test day. On the day of testing, the mice were given two 5-min trials (T1 with two identical objects and T2 with a familiar object from T1 and a novel object), separated by 1-hour interval. The discrimination index (DI) ((time spent exploring the novel object−time spent exploring the familiar object)/total exploration time) was calculated for T2 trials.

Cln3−/− mice [4] = experiment: LAMP1 staining of peripheral white blood cells, BD animal model; type: in vivo; conditions: CLN3 knockout (KO) mice, FIG. 4C
Description: as §1
Isolation of white blood cells from peripheral blood of mice: 20 μL of blood of mice was lysed with ACK lysing buffer (Lonza) for 1 min. After washing, cells were resuspended with RPMI.

PLA2G4A = experiment: RNA-sequencing in iPS cell-derived neurons: PLA2G4A expression; type: cell-based; conditions: WT and CLN3 KO human iPS cell-derived neurons, treated 2 weeks vs mock, FIG. 5A
From the text: (§2) RNA-sequencing in iPS cell-derived neurons: Cells were differentiated from iPS cells and treated either with 0.1% DMSO or Compound A for 2 weeks. RNAs were extracted using RNeasy Mini Kit (QIAGEN). The libraries for RNA-sequencing were constructed by SMART-Seq v4 Ultra Low Input RNA Kit (Takara bio).

PLA2G7 = experiment: RNA-sequencing in iPS cell-derived neurons: PLA2G7 expression; type: cell-based; conditions: WT and CLN3 KO human iPS cell-derived neurons, treated 2 weeks vs mock, FIG. 5B
From the text: as §2

[5] = test system: animal model of GM1 gangliosidosis; conditions: cited from earlier work
[6] = test system: Neuronal cells differentiated from Cln3 mutant iPSCs; experiment: LAMP1 staining of neuronal cells differentiated from Cln3 mutant iPSCs; type: cell-based, human; conditions: 0.4-10 μM, n=2-3, FIG. 2D
Description: as §1

SMILES: OC[C@H]1NC[C@H](O)[C@@H](O)[C@H]1O [1-deoxygalactonojirimycin (DGJ), 1-deoxygalactonojirimycin]
- residual α-galactosidase A activity (α-galactosidase A): enhance residual α-galactosidase A activity

SMILES: CC(C)CN1CCCn2c1nc1ccc(NCCN(C)C)cc1c2=O [Compound A, 8-{[2-(dimethylamino)ethyl]amino}-1-(2-methylpropyl)-1,2,3,4-tetrahydro-6H-pyrimido[2,1-b]quinazolin-6-one]
- elevated autofluorescence (AF) in Batten disease (BD) lymphoblasts ([1]; FIG. 4A): amelioration of elevated autofluorescence (AF)
- elevated LAMP1 signal in Batten disease (BD) lymphoblasts ([2]; FIG. 4B): amelioration of elevated LAMP1 signal
- cognitive deficits (novel object recognition test) of BD mice (Cln3−/− mice [3]): Amelioration of cognitive deficits
- elevated LAMP1 signal in peripheral white blood cells of BD mice (Cln3−/− mice [4]): amelioration of elevated LAMP1 signal
- expression of PLA2G4A (PLA2G4A): significantly influenced the expression of PLA2 genes
- expression of PLA2G7 (PLA2G7): significantly influenced the expression of PLA2 genes

SMILES: CCCCCCCCNC1C=C(CO)C(O)C(O)C1O (stereo not drawn) [N-octyl 4-epi-β-valienamine (NOEV), N-octyl 4-epi-β-valienamine]
- residual activity in the brain [5]: increased residual activity in the brain

SMILES: CC(C)c1nc(N(C)S(C)(=O)=O)nc(-c2ccc(F)cc2)c1/C=C/[C@@H](O)C[C@@H](O)CC(=O)O [rosuvastatin]
- elevated autofluorescence (AF) of JNCL patient lymphoblasts ([1]; 10 μM, FIG. 2B): decreased it
- anti-LAMP1 staining of JNCL patient lymphoblasts ([2]; 10 μM, n=3, FIG. 2C): decreased it
- lysosomal deficits found in BD lymphoblasts (LAMP1 expression and AF levels) ([2]; cites FIGS. 2C, 2D): ameliorate the lysosomal deficits
- anti-LAMP1 staining of neuronal cells differentiated from Cln3 mutant iPSCs [6]: dose-dependently decreased it
